Laboratory results as given in patent US6737383B1, “Herbicidal oxadiazolidines” (priority 1999, dated 2004).

Tests used:
surinam grass = assay: Test B pre/postemergence surinam grass; type: in vivo, Brachiaria decumbens
Outline: (§1)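 Herbicidal effect was estimated by eye on a ten-point control scale after plants spent twelve to sixteen days in a greenhouse following soil or foliar treatment. Foliar sprays targeted plants at one to four leaves; all doses were formulated in a non-phytotoxic solvent with surfactant.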

corn = assay: Test B pre/postemergence corn; type: in vivo, Zea mays
Outline: as §1

blackgrass = assay: Test B pre/postemergence blackgrass; type: in vivo, Alopecurus myosuroides
Outline: as §1

rice = assay: Test B flood test rice; type: in vivo, Oryza sativa
Outline: (§2)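 Flood test on plants grown to the 2-leaf stage; treated plants kept in greenhouse twelve to sixteen days, then visually rated against controls on a 0 (no effect) to 10 (complete control) scale.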

bedstraw = assay: Test B pre/postemergence bedstraw; type: in vivo, Galium aparine
Outline: as §1

crabgrass = assay: Test B pre/postemergence crabgrass; type: in vivo, Digitaria sanguinalis
Outline: as §1

giant foxtail = assay: Test B pre/postemergence giant foxtail; type: in vivo, Setaria faberii
Outline: as §1

sugar beet = assay: Test B pre/postemergence sugar beet; type: in vivo, Beta vulgaris
Outline: as §1

purple nutsedge = assay: Test B pre/postemergence purple nutsedge; type: in vivo, Cyperus rotundus
Outline: as §1

morningglory = assay: Test B pre/postemergence morningglory; type: in vivo, Ipomoea hederacea
Outline: as §1

wild oat = assay: Test B pre/postemergence wild oat; type: in vivo, Avena fatua
Outline: as §1

pigweed = assay: Test B pre/postemergence pigweed; type: in vivo, Amaranthus retroflexus
Outline: as §1

smallflower flatsedge = assay: Test B flood test smallflower flatsedge; type: in vivo, Cyperus difformis
Outline: as §2

cocklebur = assay: Test B pre/postemergence cocklebur; type: in vivo, Xanthium strumarium
Outline: as §1

duck salad = assay: Test B flood test duck salad; type: in vivo, Heteranthera limosa
Outline: as §2

soybean = assay: Test B pre/postemergence soybean; type: in vivo, Glycine max
Outline: as §1

[1] = Postemergence, Rate 62 g/ha, scale 0 to 10, 0 is no effect, 10 is complete control
[2] = Postemergence, Rate 125 g/ha, scale of 0 to 10 where 0 is no effect and 10 is complete control
[3] = Postemergence, Rate 250 g/ha, scale of 0 to 10, 0 is no effect, 10 is complete control
[4] = Postemergence, Rate 500 g/ha, scale of 0 to 10 where 0 is no effect and 10 is complete control
[5] = Preemergence, Rate 62 g/ha, scale 0 to 10 (0 no effect, 10 complete control)
[6] = Preemergence, Rate 125 g/ha, scale of 0 to 10 where 0 is no effect and 10 is complete control
[7] = Preemergence, Rate 500 g/ha, scale of 0 to 10 where 0 is no effect and 10 is complete control
[8] = Rate 62 g/ha, flood test species, Pre-emergence, visual evaluation after twelve to sixteen days
[9] = Rate 125 g/ha, under heading Pre-emergence, flood test species, visual evaluation after twelve to sixteen days
[10] = Rate 250 g/ha, Pre-emergence (flood test species), scale 0 to 10, 0 is no effect, 10 is complete control
[11] = Rate 500 g/ha, Pre-emergence section of Table B, 0 to 10 scale (0 no effect, 10 complete control)

CC(C)N(C(=O)n1oc(=O)n(CC2=NOCCC2)c1=O)c1ccc(F)cc1F [Compound 602]
Plant response rating, B. signalgrass (surinam grass; [1]): 0 | Plant response rating, B. signalgrass (surinam grass; [2]): 2 | B. signalgrass plant response rating (surinam grass; [3]): 5 | Plant response rating, B. signalgrass (surinam grass; [4]): 7 | B. signalgrass plant response rating (surinam grass; [5]): 0 | B. signalgrass plant response rating (surinam grass; [6]): 4 | B. signalgrass plant response rating (0 to 10 scale, 0 is no effect, 10 is complete control) (surinam grass; Preemergence, Rate 250 g/ha): 7 | B. signalgrass plant response rating (surinam grass; [7]): 7 | Plant response rating, Corn (corn; [1]): 0 | Plant response rating, Corn (corn; [2]): 0 | Corn plant response rating (corn; [3]): 0 | Plant response rating, Corn (corn; [4]): 0 | Corn plant response rating (corn; [5]): 0 | Corn plant response rating (corn; [6]): 0 | Corn plant response rating (0 to 10 scale) (corn; Preemergence, Rate 250 g/ha): 0 | Plant response rating, Corn (corn; [7]): 2 | Plant response rating, Blackgrass (blackgrass; [1]): 4 | Plant response rating, Blackgrass (blackgrass; [2]): 6 | Blackgrass plant response rating (blackgrass; [3]): 8 | Plant response rating, Blackgrass (blackgrass; [4]): 9 | Blackgrass plant response rating (blackgrass; [5]): 0 | Blackgrass plant response rating (blackgrass; [6]): 4 | Blackgrass plant response rating (0 to 10 scale) (blackgrass; Preemergence, Rate 250 g/ha): 6 | Blackgrass plant response rating (blackgrass; [7]): 9 | Plant response rating, Rice (0 to 10 scale, 0 is no effect, 10 is complete control) (rice; [8]): 0 | Rice plant response rating (0 to 10 scale, 0 is no effect, 10 is complete control) (rice; [9]): 0 | Rice plant response rating (rice; [10]): 0 | Rice plant response rating (rice; [11]): 0 | Plant response rating, Bedstraw (bedstraw; [2]): 3 | Bedstraw plant response rating (bedstraw; [3]): 3 | Bedstraw plant response rating (bedstraw; [5]): 0 | Bedstraw plant response rating (bedstraw; [6]): 0 | Bedstraw plant response rating (0 to 10 scale) (bedstraw; Preemergence, Rate 250 g/ha): 0 | Bedstraw plant response rating (bedstraw; [7]): 0 | Plant response rating, Crabgrass (crabgrass; [1]): 2 | Plant response rating, Crabgrass (crabgrass; [2]): 4 | Crabgrass plant response rating (crabgrass; [3]): 4 | Plant response rating, Crabgrass (crabgrass; [4]): 9 | Crabgrass plant response rating (crabgrass; [5]): 7 | Crabgrass plant response rating (crabgrass; [6]): 8 | Plant response rating, Crabgrass (crabgrass; [7]): 10 | Plant response rating, Giant foxtail (giant foxtail; [1]): 1 | Plant response rating, Giant foxtail (giant foxtail; [2]): 8 | Giant foxtail plant response rating (giant foxtail; [3]): 9 | Plant response rating, Giant foxtail (giant foxtail; [4]): 9 | Giant foxtail plant response rating (giant foxtail; [5]): 9 | Giant foxtail plant response rating (giant foxtail; [6]): 9 | Plant response rating, Giant foxtail (giant foxtail; [7]): 10 | Plant response rating, Sugarbeets (sugar beet; [1]): 0 | Plant response rating, Sugarbeets (sugar beet; [2]): 0 | Sugarbeets plant response rating (sugar beet; [3]): 0 | Plant response rating, Sugarbeets (sugar beet; [4]): 0 | Sugarbeets plant response rating (sugar beet; [5]): 0 | Sugarbeets plant response rating (sugar beet; [6]): 2 | Plant response rating, Sugarbeets (sugar beet; [7]): 5 | Plant response rating, Nutsedge (purple nutsedge; [1]): 0 | Plant response rating, Nutsedge (purple nutsedge; [2]): 0 | Nutsedge plant response rating (purple nutsedge; [3]): 0 | Plant response rating, Nutsedge (purple nutsedge; [4]): 0 | Nutsedge plant response rating (purple nutsedge; [5]): 0 | Nutsedge plant response rating (purple nutsedge; [6]): 0 | Plant response rating, Nutsedge (purple nutsedge; [7]): 0 | Plant response rating, Morningglory (morningglory; [1]): 0 | Plant response rating, Morningglory (morningglory; [2]): 1 | Morningglory plant response rating (morningglory; [3]): 2 | Plant response rating, Morningglory (morningglory; [4]): 3 | Morningglory plant response rating (morningglory; [5]): 0 | Morningglory plant response rating (morningglory; [6]): 0 | Plant response rating, Morningglory (morningglory; [7]): 0 | Plant response rating, Wild oats (wild oat; [1]): 0 | Plant response rating, Wild oats (wild oat; [2]): 0 | Wild oats plant response rating (wild oat; [3]): 0 | Plant response rating, Wild oats (wild oat; [4]): 3 | Wild oats plant response rating (wild oat; [5]): 0 | Wild oats plant response rating (wild oat; [6]): 3 | Plant response rating, Wild oats (wild oat; [7]): 8 | Plant response rating, Redroot pigweed (pigweed; [1]): 2 | Plant response rating, Redroot pigweed (pigweed; [2]): 2 | Redroot pigweed plant response rating (pigweed; [3]): 3 | Plant response rating, Redroot pigweed (pigweed; [4]): 6 | Redroot pigweed plant response rating (pigweed; [5]): 2 | Redroot pigweed plant response rating (pigweed; [6]): 7 | Plant response rating, Redroot pigweed (pigweed; [7]): 8 | Plant response rating, S. Flatsedge (0 to 10 scale, 0 is no effect, 10 is complete control) (smallflower flatsedge; [8]): 0 | S. Flatsedge plant response rating (0 to 10 scale, 0 is no effect, 10 is complete control) (smallflower flatsedge; [9]): 0 | S. Flatsedge plant response rating (smallflower flatsedge; [10]): 0 | S. Flatsedge plant response rating (smallflower flatsedge; [11]): 0 | Plant response rating, Cocklebur (cocklebur; [1]): 0 | Plant response rating, Cocklebur (cocklebur; [2]): 0 | Cocklebur plant response rating (cocklebur; [3]): 0 | Plant response rating, Cocklebur (cocklebur; [4]): 0 | Cocklebur plant response rating (cocklebur; [5]): 0 | Cocklebur plant response rating (cocklebur; [6]): 0 | Cocklebur plant response rating (0 to 10 scale) (cocklebur; Preemergence, Rate 250 g/ha): 0 | Plant response rating, Cocklebur (cocklebur; [7]): 0 | Plant response rating, Ducksalad (0 to 10 scale, 0 is no effect, 10 is complete control) (duck salad; [8]): 0 | Ducksalad plant response rating (0 to 10 scale, 0 is no effect, 10 is complete control) (duck salad; [9]): 0 | Ducksalad plant response rating (duck salad; [10]): 0 | Ducksalad plant response rating (duck salad; [11]): 0 | Plant response rating, Soybean (soybean; [1]): 3 | Plant response rating, Soybean (soybean; [2]): 3 | Soybean plant response rating (soybean; [3]): 5 | Plant response rating, Soybean (soybean; [4]): 7 | Soybean plant response rating (soybean; [6]): 0 | Plant response rating, Soybean (soybean; [7]): 0
